Drawing on patent US10745360B2, “Quinoxaline compounds, method for preparing the same and use thereof” (Development Center for Biotechnology, priority 2014, dated 2020), this text covers IC50 for eight compounds.

Assay [1] deals with B-Raf^V600E mutant COLO205 colon cancer cell. Put plainly: Cell proliferation assay (CELLTITER 96), COLO205. The assay is classed as cell-based. The conditions noted are these: Homo sapiens, COLO 205; COLO205, 72 hours; read-out: Cytotoxicity (IC50 Ranking) COLO205 (B-Raf^V600E). The method, boiled down:
(§1)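 Cells seeded overnight (A375 and COLO205 at 2000, SK-MEL-2 at 4000 cells/well), then exposed to increasing compound concentrations for 72 h at 37° C. Viability read by MTS absorbance at 490 nm after 4 h reagent; IC50 from curve fit of percent growth inhibition versus concentration.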

Assay [2] deals with SK-MEL-2 melanoma cell with wild type B-Raf (B-Raf^wt) and NRAS^Q61R mutation. Put plainly: Cell proliferation assay (CELLTITER 96), SK-MEL-2. The assay is classed as cell-based. The conditions noted are these: Homo sapiens; SK-MEL-2, 72 hours; given as bound; read-out: Cytotoxicity (IC50 Ranking) SK-MEL-2 (NRAS^Q61R, B-Raf^wt). The method, boiled down: as §1
In another assay the target is T1, B-Raf kinase (Homo sapiens, UniProt P15056).
T1 construct: purchased Upstate Biotechnology
T1 sequence (P15056 whole entry): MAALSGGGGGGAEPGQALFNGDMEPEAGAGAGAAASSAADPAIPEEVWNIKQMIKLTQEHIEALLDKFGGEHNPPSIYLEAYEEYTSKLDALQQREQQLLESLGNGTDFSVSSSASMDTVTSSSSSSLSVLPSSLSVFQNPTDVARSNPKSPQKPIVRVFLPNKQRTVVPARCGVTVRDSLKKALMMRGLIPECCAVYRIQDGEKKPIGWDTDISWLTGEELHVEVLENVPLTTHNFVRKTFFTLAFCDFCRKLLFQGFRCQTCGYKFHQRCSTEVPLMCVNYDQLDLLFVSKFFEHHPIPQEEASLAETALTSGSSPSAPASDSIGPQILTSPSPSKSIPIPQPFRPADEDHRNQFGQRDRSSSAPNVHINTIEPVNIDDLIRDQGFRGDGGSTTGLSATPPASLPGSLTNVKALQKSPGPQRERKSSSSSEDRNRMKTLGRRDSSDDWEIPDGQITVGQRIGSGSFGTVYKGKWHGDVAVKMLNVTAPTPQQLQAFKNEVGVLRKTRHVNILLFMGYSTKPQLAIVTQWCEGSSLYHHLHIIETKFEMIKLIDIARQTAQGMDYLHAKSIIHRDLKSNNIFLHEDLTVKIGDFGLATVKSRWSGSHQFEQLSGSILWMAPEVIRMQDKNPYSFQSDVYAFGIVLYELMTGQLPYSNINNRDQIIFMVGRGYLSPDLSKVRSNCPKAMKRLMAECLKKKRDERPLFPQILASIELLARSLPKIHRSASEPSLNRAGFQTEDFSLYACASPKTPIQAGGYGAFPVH
The assay can be described thus: B-Raf kinase assay ([33P] incorporation into MEK1 K97R). The assay is classed as biochemical. The conditions noted are these: recombinant B-Raf, 8 μM ATP, 30 min, 30° C.; read-out: IC50 ranking against B-Raf kinase. The method in brief:
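Recombinant B-Raf (5 ng) phosphorylating MEK1 K97R (500 ng) with 8 μM ATP plus [33P]ATP in Tris/HCl pH 7.5 buffer, 30 min at 30° C. Filter-captured 33P counted by scintillation; IC50 from 3-fold serial dilutions run in duplicate.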

The target in a further assay is T2, C-Raf kinase (Homo sapiens, UniProt P04049).
T2 construct: purchased Upstate Biotechnology
T2 sequence (P04049 whole entry): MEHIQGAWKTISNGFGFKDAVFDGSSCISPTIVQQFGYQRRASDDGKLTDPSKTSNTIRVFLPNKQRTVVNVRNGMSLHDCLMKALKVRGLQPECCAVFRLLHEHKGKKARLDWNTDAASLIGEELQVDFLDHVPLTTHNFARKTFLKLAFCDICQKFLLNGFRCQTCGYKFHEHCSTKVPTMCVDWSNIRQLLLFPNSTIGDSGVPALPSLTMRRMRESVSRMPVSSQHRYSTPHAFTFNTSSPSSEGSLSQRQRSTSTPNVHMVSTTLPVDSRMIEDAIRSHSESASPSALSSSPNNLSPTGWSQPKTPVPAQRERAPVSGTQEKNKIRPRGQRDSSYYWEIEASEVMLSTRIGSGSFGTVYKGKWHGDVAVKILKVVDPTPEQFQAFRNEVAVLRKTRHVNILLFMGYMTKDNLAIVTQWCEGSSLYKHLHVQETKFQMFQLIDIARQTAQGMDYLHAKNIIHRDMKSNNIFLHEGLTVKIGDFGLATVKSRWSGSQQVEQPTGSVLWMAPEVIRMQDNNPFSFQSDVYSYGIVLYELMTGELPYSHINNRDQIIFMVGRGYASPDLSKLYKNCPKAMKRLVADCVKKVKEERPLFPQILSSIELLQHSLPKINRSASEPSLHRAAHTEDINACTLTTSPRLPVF
Put plainly: C-Raf kinase assay ([33P] incorporation into MEK1 K97R). The conditions noted are these: recombinant C-Raf, 8 μM ATP, 30 min, 30° C.; read-out: IC50 ranking against C-Raf kinase. The assay is classed as biochemical. The method, boiled down:
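Recombinant C-Raf (2 ng) phosphorylating MEK1(K97R) with 8 μM ATP plus [33P]ATP, pH 7.5 Tris buffer, 30 min at 30° C. Acid-stopped, filter-captured 33P counted by scintillation; IC50 from 3-fold dilution series run in duplicate.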

The target of a further assay is T3, B-Raf^V600E kinase (Homo sapiens, UniProt P15056, V600E).
T3 construct: purchased Upstate Biotechnology
T3 sequence (P15056 whole entry V600E): as the sequence (P15056 whole entry) above, with V600E counted along it
The assay can be described thus: B-Raf V600E kinase assay ([33P] incorporation into MEK1 K97R). Type of assay: biochemical. The settings on record: recombinant B-Raf^V600E, 8 μM ATP, 30 min, 30° C.; read-out: IC50 ranking against B-Raf^V600E kinase. The method in brief:
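Recombinant B-Raf V600E (5 ng) phosphorylating MEK1 K97R (500 ng) with 8 μM ATP plus [33P]ATP in Tris pH 7.5 buffer, 30 min at 30 °C. Filter-bound 33P counted by scintillation; IC50 from 3-fold dilution series in duplicate.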

Assay [3] relates to B-Raf^V600E mutant A375 melanoma cell. Put plainly: Cell proliferation assay (CELLTITER 96), A375. The assay is classed as cell-based. The settings on record: Homo sapiens, A-375; A375, 72 hours; read-out: Cytotoxicity (IC50 Ranking) A375 (B-Raf^V600E). The method in brief: as §1

pIC50: −log10 of the molar value.

One may read the pIC50 as −log10 of the IC50, conventionally taken in molar units. With `CCCS(=O)(=O)Nc1ccc(F)c(Nc2ccc3ncc(Nc4ccccc4F)nc3c2)c1F` [compound 11, N1-(2,4-difluoro-3-{[3-(2-fluoroanilino)-6-quinoxalinyl]amino}phenyl)-1-propanesulfonamide], the negative logarithm of the IC50 (pIC50) was 5.00 to 6.00 in assay [1]; less than 5.00 in assay [2]; more than 6.52 at B-Raf kinase; more than 6.52 at C-Raf kinase; more than 6.52 at B-Raf^V600E kinase; 6.00 to 6.52 in assay [3].
For the compound `CCCS(=O)(=O)Nc1ccc(F)c(Nc2ccc3ncc(Nc4cccnc4)nc3c2)c1F` [compound 12, N1-(2,4-difluoro-3-{[3-(3-pyridylamino)-6-quinoxalinyl]amino}phenyl)-1-propanesulfonamide], the pIC50 in assay [1] is 6.00 to 6.52; in assay [2] it was less than 5.00; at B-Raf kinase, more than 6.52; on C-Raf kinase, more than 6.52; on B-Raf^V600E kinase, more than 6.52; in assay [3], 5.00 to 6.00.
With `CCCS(=O)(=O)Nc1ccc(F)c(Nc2ccc3ncc(Nc4ccc(F)cc4F)nc3c2)c1F` [compound 13, N1-(3-{[3-(2,4-difluoroanilino)-6-quinoxalinyl]amino}-2,4-difluorophenyl)-1-propanesulfonamide], the pIC50 is 5.00 to 6.00 in assay [1]; less than 5.00 in assay [2]; more than 6.52 at B-Raf kinase; more than 6.52 on C-Raf kinase; more than 6.52 on B-Raf^V600E kinase; 6.00 to 6.52 in assay [3].
Turning to `CCCS(=O)(=O)Nc1ccc(F)c(Nc2ccc3ncc(NC(=O)C4CC4)nc3c2)c1F` [compound 8, N1-(7-{2,6-difluoro-3-[(propylsulfonyl)amino]anilino}-2-quinoxalinyl)-1-cyclopropanecarboxamide], the pIC50 in assay [1] was 5.00 to 6.00; in assay [2], less than 5.00; on B-Raf kinase, 6.00 to 6.52; at C-Raf kinase, 6.00 to 6.52; at B-Raf^V600E kinase, 6.00 to 6.52; in assay [3], 5.00 to 6.00.
Turning to `CCCS(=O)(=O)N(CC)c1ccc(F)c(Nc2ccc3ncc(OC)nc3c2C#N)c1F` [compound 42, N-(3-(5-cyano-3-methoxyquinoxalin-6-ylamino)-2,4-difluorophenyl)-N-ethylpropane-1-sulfonamide], the pIC50 was more than 6.52 in assay [1]; less than 5.00 in assay [2]; more than 6.52 on B-Raf kinase; more than 6.52 at C-Raf kinase; more than 6.52 on B-Raf^V600E kinase; more than 6.52 in assay [3].
For the compound `CCCS(=O)(=O)Nc1ccc(F)c(Nc2ccc3ncc(N4CCOCC4)nc3c2C#N)c1` [compound 23, N-(3-(5-cyano-3-morpholinoquinoxalin-6-ylamino)-4-fluorophenyl)propane-1-sulfonamide], the pIC50 in assay [1] is more than 6.52; in assay [2] it was less than 5.00; at B-Raf kinase, 6.00 to 6.52; at C-Raf kinase it was 5.00 to 6.00; at B-Raf^V600E kinase, 6.00 to 6.52; in assay [3], more than 6.52.
`N#Cc1c(Nc2c(F)ccc(NS(=O)(=O)c3ccccc3)c2Cl)ccc2ncc(N3CCOCC3)nc12` [compound 49, N-(2-chloro-3-(5-cyano-3-morpholinoquinoxalin-6-ylamino)-4-fluorophenyl)benzenesulfonamide]: the pIC50 in assay [1] was more than 6.52; in assay [2], less than 5.00; at B-Raf kinase, more than 6.52; at C-Raf kinase it was more than 6.52; on B-Raf^V600E kinase, more than 6.52; in assay [3] it was more than 6.52.
For `CCOc1cnc2ccc(Nc3c(F)ccc(NS(=O)(=O)CCCF)c3F)c(C#N)c2n1` [compound 34, N-(3-(5-cyano-3-ethoxyquinoxalin-6-ylamino)-2,4-difluorophenyl)-3-fluoropropane-1-sulfonamide], the pIC50 is more than 6.52 in assay [1]; less than 5.00 in assay [2]; more than 6.52 at B-Raf kinase; more than 6.52 at C-Raf kinase; more than 6.52 at B-Raf^V600E kinase; more than 6.52 in assay [3].
